This assay addresses T1, Human AMPK α2β2γ1 (Homo sapiens, UniProt O43741+P54646).
T1 construct: The full length cDNAs of human AMPK β2 (NM_005399.3) and human AMPK α2 (NM_006252.3); The full length cDNAs of human AMPK β2 (NM_005399.3); the full length cDNA of human AMPK γ1 (NM_002733.3) had been inserted into pET28b(+); 6×His (N); made in house; host or cells: Escherichia coli BL21 CodonPlus (DE3)-RIL
In words: Test Example 2: activation of phosphorylated human AMPK α2β2γ1 (mobility-shift kinase assay, FL-Peptide 7). The conditions noted are these: for EC150: compound concentration showing 150% relative to the control (100%), human AMPK α2β2γ1 phosphorylated with CaMKK2; for Emax: maximum rate of increase in activity within the measurement range, control = 100%, read-out: Emax. Type of assay: biochemical. As for the experimental part:
The full length cDNAs of human AMPK β2 (NM_005399.3) and human AMPK α2 (NM_006252.3) were inserted into the MCS1 and MCS2 of the pETDuet-1 vector to prepare a human AMPK β2 and human AMPK α2 (6×His tag at the 5′ terminus) expressing plasmid. The plasmid was cotransfected with an expression plasmid, in which the full length cDNA of human AMPK γ1 (NM_002733.3) had been inserted into pET28b(+), into BL21 CodonPlus (DE3)-RIL to obtain an expression strain. The expression strain was cultured in TB medium, followed by induction with 0.5 mM IPTG, and cultured at 25° C. for 3 hours and then harvested. After ultrasonication, supernatant was collected and applied to Histrap FF column (GE) and RESOUECE Q column (GE) to prepare 12.5 mg of purified sample containing three types of subunit from 1.8 L of broth.
An expression vector, in which the full length cDNA of human CAMKK β (NM_172226.1) had been inserted into pGEX-6P-3, was transfected into BL21 Star (DE3). The expression strain was cultured in TB medium, followed by induction with 0.5 mM IPTG, and cultured at 25° C. for 3 hours and then harvested. After ultrasonication, supernatant was collected and applied to GSTrap FF column (GE) to prepare 14 mg of GST-fused CAMKK β from 720 ml of broth.
Thus, phosphorylation treatment was carried out as pretreatment.
Human AMPK α2β2γ1 in an amount to give a conversion rate of approximately 10% by reaction for 2 hours, and CaMKK2 in an amount capable of sufficiently imparting activity to AMPK for one hour were mixed in a buffer solution consisting of a 50 mM HEPES-NaOH buffer solution (pH 7.0), 100 mM NaCl, 5 mM magnesium chloride, 0.1% bovine serum albumin, 0.2 mM sodium orthovanadate(V), 1 mM ethylene glycol-bis(2-aminoethyl ether)-N,N,N′,N′-tetraacetic acid (EGTA), 5 mM disodium β-glycerophosphate, 1 mM dithiothreitol and 0.2 mM ATP, and the resulting liquid was left to stand at 25° C. for 1 to 1.5 hours to sufficiently phosphorylate AMPK.
After that, to the enzyme liquid, which had been subjected to phosphorylation treatment, a compound dissolved in DMSO was added so as to have a 1% DMSO concentration. The resulting liquid was left to stand for 10 minutes.
To the liquid, a substrate solution consisting of a 50 mM HEPES-NaOH buffer solution (pH 7.0), 100 mM NaCl, 10 mM magnesium chloride, 0.1% bovine serum albumin, 0.2 mM sodium orthovanadate(V), 1 mM ethylene glycol-bis(2-aminoethyl ether)-N,N,N′,N′-tetraacetic acid (EGTA), 5 mM disodium β-glycerophosphate, 2 mM dithiothreitol, 0.4 mM ATP and 3 μM FL-Peptide 7 (manufactured by Caliper Life Sciences, Inc.) was added in equal amount (10 μl in total). The resulting liquid was allowed to react at 25° C. for 2 hours, then 10 μl of 20 mM EDTA was added thereto to stop the reaction.
To detect phosphorylated fluorescent substrates, the reaction mixture was applied to a measuring device, LabChip EZ Reader II manufactured by Caliper Life Science, Inc., for detecting fluorescence by using differences in mobility due to differences in charge. The setting conditions for the device were pressure, −1.5 PSI; upstream voltage, −2250 V; downstream voltage, −400 V; post sample buffer sip time, 40 seconds; final delay, 120 seconds; and peak order, Product First.
A conversion rate was calculated from the peak heights of the obtained substrate and product. The conversion rate when not containing a compound was used as a control, and a concentration dependent curve was made by plotting the rate of increase in activity to the control at each concentration of a compound.

For 30 compounds, EC150 and Emax results are on record in patent US10478425B2, “5-phenylazaindole derivative having AMPK-activating activity” (Shionogi & Co., Ltd., priority 2016, dated 2019).

T1 sequence (P54646 whole entry): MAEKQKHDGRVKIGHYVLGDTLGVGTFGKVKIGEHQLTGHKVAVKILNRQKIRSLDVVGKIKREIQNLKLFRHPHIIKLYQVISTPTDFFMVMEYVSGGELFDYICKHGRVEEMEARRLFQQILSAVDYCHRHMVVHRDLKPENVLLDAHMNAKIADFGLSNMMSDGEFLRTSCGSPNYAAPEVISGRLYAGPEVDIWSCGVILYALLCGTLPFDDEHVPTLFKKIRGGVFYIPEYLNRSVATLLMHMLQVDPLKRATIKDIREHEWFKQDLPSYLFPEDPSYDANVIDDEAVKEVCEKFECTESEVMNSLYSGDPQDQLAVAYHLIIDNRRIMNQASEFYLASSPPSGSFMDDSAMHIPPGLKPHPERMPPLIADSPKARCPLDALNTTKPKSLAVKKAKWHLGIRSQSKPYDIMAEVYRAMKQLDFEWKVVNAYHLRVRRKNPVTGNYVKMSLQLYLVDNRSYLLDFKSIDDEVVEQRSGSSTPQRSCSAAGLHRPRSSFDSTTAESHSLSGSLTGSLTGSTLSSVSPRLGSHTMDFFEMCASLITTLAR
T1 sequence (O43741 whole entry): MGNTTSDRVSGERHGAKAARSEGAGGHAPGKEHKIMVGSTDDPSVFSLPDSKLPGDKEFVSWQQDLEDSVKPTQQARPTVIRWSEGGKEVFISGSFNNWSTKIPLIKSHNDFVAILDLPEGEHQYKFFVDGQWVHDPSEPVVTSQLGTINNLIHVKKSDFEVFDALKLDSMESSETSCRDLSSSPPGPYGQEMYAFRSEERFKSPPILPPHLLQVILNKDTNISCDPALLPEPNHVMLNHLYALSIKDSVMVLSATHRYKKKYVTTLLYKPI
T1 sequence (P54619 whole entry partner): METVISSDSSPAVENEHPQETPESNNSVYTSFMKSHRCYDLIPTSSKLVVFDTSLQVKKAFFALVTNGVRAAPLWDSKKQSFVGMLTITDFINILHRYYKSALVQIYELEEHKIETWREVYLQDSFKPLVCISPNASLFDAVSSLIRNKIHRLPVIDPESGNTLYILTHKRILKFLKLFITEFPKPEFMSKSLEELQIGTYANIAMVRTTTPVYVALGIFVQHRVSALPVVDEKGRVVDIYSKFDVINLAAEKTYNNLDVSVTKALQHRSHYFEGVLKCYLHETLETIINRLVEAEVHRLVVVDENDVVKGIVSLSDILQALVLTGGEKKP

The term Emax denotes the size of the effect at its maximum, as opposed to the concentration needed. As to `CNS(C)(=O)=Nc1ccc(-c2ccc(-c3nc4cc(O[C@@H]5CO[C@H]6[C@@H]5OC[C@H]6O)[nH]c4cc3F)cc2)cc1` (stereo partly drawn) [Compound I-2-04], the EC150 worked out at 0.67 nM and the Emax stood at 638%.
`O=C(Nc1ccc(-c2ccc(-c3nc4cc(O[C@@H]5CO[C@H]6[C@@H]5OC[C@H]6O)[nH]c4cc3F)cc2)cc1)[C@@H]1C[C@@H]1F` [Compound I-2-05]: the EC150 is 6.8 nM and the Emax was 632%.
On to `COCC(=O)Nc1ccc(-c2ccc(-c3nc4cc(O[C@@H]5CO[C@H]6[C@@H]5OC[C@H]6O)[nH]c4cc3F)cc2)cc1` [Compound I-2-10], for which the EC150 came out at 2.9 nM and the Emax is 636%.
On to `CN(C)S(=N)(=O)c1ccc(-c2ccc(-c3nc4cc(O[C@@H]5CO[C@H]6[C@@H]5OC[C@H]6O)[nH]c4cc3F)cc2)cc1` (stereo partly drawn) [Compound I-2-11], for which the EC150 worked out at 2.1 nM and the Emax worked out at 408%.
On to `COCCN(C)c1ccc(-c2ccc(-c3nc4cc(O[C@@H]5CO[C@H]6[C@@H]5OC[C@H]6O)[nH]c4cc3F)cc2)cc1` [Compound I-2-12], for which the EC150 is 6.9 nM and the Emax was 367%.
In the same order, the values of `CC(C)(O)/C=C/c1ccc(-c2nc3cc(O[C@@H]4CO[C@H]5[C@@H]4OC[C@H]5O)[nH]c3cc2F)cc1` [Compound I-2-14] are 9.9 nM and 507%.
As for `CC(C)(O)/C=C/c1ccc(-c2ccc(-c3nc4cc(O[C@@H]5CO[C@H]6[C@@H]5OC[C@H]6O)[nH]c4cc3F)cc2)cc1` [Compound I-2-15], the EC150 was found to be 11 nM and the Emax is 505%.
Taken in the same sequence, the figures for `OCCSc1ccc(-c2ccc(-c3nc4cc(O[C@@H]5CO[C@H]6[C@@H]5OC[C@H]6O)[nH]c4cc3F)cc2)cc1` [Compound I-2-16] were 1.8 nM and 623%.
In the same order, the values of `O[C@@H]1CO[C@H]2[C@@H]1OC[C@H]2Oc1cc2nc(-c3ccc([C@@H]4CCCC[C@H]4O)cc3)c(F)cc2[nH]1` [Compound I-2-17] are 15 nM and 600%.
As to `CS(C)(=O)=Nc1ccc(-c2ccc(-c3nc4cc(O[C@@H]5CO[C@H](CO)[C@@H]5O)[nH]c4cc3F)cc2)cc1` [Compound I-2-19], the EC150 was found to be 67 nM and the Emax was found to be 192%.
Taken in the same sequence, the figures for `O[C@@H]1CO[C@H]2[C@@H]1OC[C@H]2Oc1cc2nc(-c3ccc(-c4ccc(N5CCOCC5)cc4)cc3)c(F)cc2[nH]1` [Compound I-2-20] were 2.3 nM and 375%.
Taken in the same sequence, the figures for `Clc1cc2[nH]c(O[C@H]3CCOC3)cc2nc1-c1ccc(-c2ccc(OC3CCNC3)cc2)cc1` (stereo partly drawn) [Compound I-2-21] were 13 nM and 249%.
In the same order, the values of `O[C@@H]1CO[C@H]2[C@@H]1OC[C@H]2Oc1cc2nc(-c3ccc(-c4ccc(CN5CCOCC5)cc4)cc3)c(F)cc2[nH]1` [Compound I-2-22] are 5.9 nM and 348%.
`CS(C)(=O)=Nc1ccc(-c2ccc(-c3nc4cc(O[C@@H]5CO[C@H](CO)[C@H]5O)[nH]c4cc3F)cc2)cc1` [Compound I-2-23]: the EC150 was 28 nM and the Emax is 224%.
For `COc1ccc(-c2ccc(-c3nc4cc(O[C@@H]5CO[C@H]6[C@@H]5OC[C@H]6O)[nH]c4cc3F)cc2)cc1` [Compound I-2-24], the EC150 came to 11 nM and the maximum response (Emax) was determined as 364%.
As for `CN(C)S(=N)(=O)c1ccc(-c2ccc(-c3nc4cc(O[C@@H]5CO[C@H](CO)C5)[nH]c4cc3F)cc2)cc1` (stereo partly drawn) [Compound I-2-25], the EC150 is 1.9 nM and the Emax is 426%.
For `CO[C@H]1[C@@H](CO)OC[C@H]1Oc1cc2nc(-c3ccc(-c4ccc(N=S(C)(C)=O)cc4)cc3)c(F)cc2[nH]1` [Compound I-2-26], the EC150 was determined as 8.6 nM and the Emax was determined as 298%.
As to `O[C@@H]1CO[C@H]2[C@@H]1OC[C@H]2Oc1cc2nc(-c3ccc(-c4ccc(OC5CNOC5)cc4)cc3)c(F)cc2[nH]1` (stereo partly drawn) [Compound I-2-27], the EC150 turned out to be 3.7 nM and the Emax was 375%.
In the same order, the values of `O[C@@H]1CO[C@H]2[C@@H]1OC[C@H]2Oc1cc2nc(-c3ccc(-c4ccc(OC5CNC[C@H]5F)cc4)cc3)c(F)cc2[nH]1` (stereo partly drawn) [Compound I-2-28] are 4.4 nM and 398%.
In the same order, the values of `COCCCc1ccc(-c2ccc(-c3nc4cc(O[C@@H]5CO[C@H]6[C@@H]5OC[C@H]6O)[nH]c4cc3F)cc2)cc1` [Compound I-2-29] are 48 nM and 367%.
As to `OCCCc1ccc(-c2ccc(-c3nc4cc(O[C@@H]5CO[C@H]6[C@@H]5OC[C@H]6O)[nH]c4cc3F)cc2)cc1` [Compound I-2-30], the EC150 was determined as 4.3 nM and the Emax is 605%.
In the same order, the values of `O[C@@H]1CO[C@H]2[C@@H]1OC[C@H]2Oc1cc2nc(-c3ccc(-c4ccc(OCC5CCCO5)cc4)cc3)c(F)cc2[nH]1` (stereo partly drawn) [Compound I-2-33] are 20 nM and 362%.
In the same order, the values of `COCCOC1CCN(c2ccc(-c3nc4cc(O[C@@H]5CO[C@H]6[C@@H]5OC[C@H]6O)[nH]c4cc3F)cc2)CC1` [Compound I-2-34] are 20 nM and 425%.
In the same order, the values of `O[C@@H]1CO[C@H]2[C@@H]1OC[C@H]2Oc1cc2nc(-c3ccc(-c4ccc(Oc5cccnc5)cc4)cc3)c(F)cc2[nH]1` [Compound I-2-36] are 43 nM and 385%.
On to `COCCN(C(C)=O)c1ccc(-c2ccc(-c3nc4cc(O[C@@H]5CO[C@H]6[C@@H]5OC[C@H]6O)[nH]c4cc3F)cc2)cc1` [Compound I-2-37], for which the EC150 is 4.5 nM and the Emax came out at 415%.
In the same order, the values of `CO[C@@H]1[C@@H](CO)OC[C@H]1Oc1cc2nc(-c3ccc(-c4ccc(N=S(C)(C)=O)cc4)cc3)c(F)cc2[nH]1` [Compound I-2-38] are 9.2 nM and 597%.
In the same order, the values of `COCCOc1ccc(-c2ccc(-c3nc4cc(O[C@@H]5CO[C@H]6[C@@H]5OC[C@H]6O)[nH]c4cc3F)cc2)cn1` [Compound I-2-40] are 16 nM and 384%.
In the same order, the values of `O=C1OCCN1c1ccc(-c2ccc(-c3nc4cc(O[C@@H]5CO[C@H]6[C@@H]5OC[C@H]6O)[nH]c4cc3F)cc2)cc1` [Compound I-2-41] are 0.8 nM and 634%.
As for `CS(C)(=O)=Nc1ccc(-c2ccc(-c3nc4cc(O[C@@H]5CO[C@H](CO)[C@H]5F)[nH]c4cc3F)cc2)cc1` [Compound I-2-42], the EC150 stood at 2.6 nM and the Emax came to 647%.
As for `CS(C)(=O)=Nc1ccc(-c2ccc(-c3nc4cc(O[C@@H]5CO[C@H](CO)C5(F)F)[nH]c4cc3F)cc2)cc1` [Compound I-2-43], the EC150 turned out to be 6.2 nM and the maximal response (Emax) worked out at 514%.
